Where two headings read alike, the source gives them in different places. Where a SMILES comes first, the peptide text is derived from it. Bridges are numbered along the chain shown (N, C = ends). [ ]: non-standard residue; d: D form. The star is where a group is joined. X1 = CC[C@H](C)CCCCC(=O)*; Dab = NCC[C@H](N)C(=O)O
Key:
[1] = PMB concentration in epithelial lining fluid (BAL, urea dilution method); assay type: in vivo; details: human, iv, 50 mg; for Kp at 96 h: epithelial lining fluid / plasma, read-out: ELF/plasma ratio; for level at 96 h: epithelial lining fluid; for Cmax: plasma, patients with BAL samples
Experimental: BAL sample collection was possible for 15 of the patients. If the patients’ respiratory status permitted, one BAL was performed immediately after the seventh dose (on day 4 of treatment). Four 20 mL aliquots of sterile 0.9% normal saline solution were instilled, immediately aspirated, and placed on ice. The aspirate from the first 20 mL instillation was collected and discarded. The aspirates recovered from the second, third, and fourth instillations were pooled.
Blood and BAL samples were centrifuged for 10 min (3000 rpm) and immediately stored at −80 °C until analysis.
PMB concentrations in the samples were quantified by monitoring the total concentrations of polymyxin B1 (PB1), polymyxin B2 (PB2), polymyxin B3 (PB3), and isoleucine polymyxin B1 (I-PB1) via a validated ultraperformance liquid chromatography–tandem mass spectrometry (UPLC-MS/MS) assay. The standard substances, including PB1 (CAS P037), PB2 (CAS P037), PB3 (CAS P040), and I-PB1 (CAS P038), were purchased by TOKU-E Company (>99% pure, Bellingham, WA, USA). ACQUITY UPLC system, Quattro PremierXE triple quadrupole mass spectrometer, electrospray isonizaiton source (ESI), and Masslynx 4.1 data processing software were used in this study (Waters Company, Milford, MA, USA). An Acquity UPLC BEH C18 column (50 mm × 2.1 mm internal diameter, 1.8 μm) purchased from Waters (Milford, MA, USA) was used. The mobile phase comprised a 0.2% formic acid aqueous solution and a 0.2% formic acid acetonitrile solution, and the flow rate was 0.3 mL/min. Mass spectrometric detection was performed in positive electrospray ionization (ESI+) mode with multiple reaction monitoring (MRM). The optimized transitions were set as follows: m/z 602.7→101.0 for PB1 and I-PB1, m/z 595.7→100.9 for PB2 and PB3, and […] for the internal standard norvancomycin. Plasma and BAL supernatant was aliquoted into microcentrifuge tubes and sequentially treated with 20 μL norvancomycin or 200 μL 5% trichloroacetic acid. 1 μL plasma and 2 μL BAL of supernatant were collected separately for the detection of PMB concentrations.
The ELF recovery rate was calculated via the urea dilution method, as reported in previous studies. The concentration of urea was analysed with a commercial kit purchased from Beijing Solarbio Science & Technology Co., Ltd., Beijing, China (BC1535). The concentration of PMB in the ELF (ELF[PMB]) was measured by using urea as an endogenous marker of ELF dilution via the following equation: ELF[PMB] = BAL[PMB] × (blood urea/BAL[Urea]), where BAL[PMB] is the concentration of PMB in BAL and BAL[Urea] is the concentration of urea in BAL.

[2] = cited from earlier work
[3] = Asian and American patients, one-compartment model, ref Manchandani et al., 2018 [47]
[4] = Asian and American patients, ref Manchandani et al., 2018 [47]
[5] = Brazilian, Australian critically ill patients, ref Sandri et al., 2013 [48]
[6] = Chinese MDR Gram-negative infected patients, ref Wang et al., 2020 [50]
[7] = Chinese critically ill patients, CRO nosocomial pneumonia, ref Tang et al., 2023 [59]
[8] = Chinese critically ill patients, CRO nosocomial pneumonia, ref Zhang et al., 2023 [60]
[9] = Chinese critically ill patients, ref Pi et al., 2023 [57]
[10] = Chinese patients with CRKP bloodstream infections, ref Yu et al., 2022 [56]
[11] = Chinese patients with various renal functions, 100–200 mg/day, ref Yu et al., 2020 [51]
[12] = ECMO, Russian critically ill patients, ref Surovoy et al., 2022 [53]
[13] = Non-ECMO, Russian critically ill patients, ref Surovoy et al., 2022 [53]
[14] = Renal insufficiency, Thai, American patients, ref Thamlikitkul et al., 2016 [52]

With CC[C@H](C)CCCCC(=O)N[C@@H](CCN)C(=O)N[C@H](C(=O)N[C@@H](CCN)C(=O)N[C@H]1CCNC(=O)[C@H]([C@@H](C)O)NC(=O)[C@H](CCN)NC(=O)[C@H](CCN)NC(=O)[C@H](CC(C)C)NC(=O)[C@@H](Cc2ccccc2)NC(=O)[C@H](CCN)NC1=O)[C@@H](C)O [PMB, polymyxin B] (X1-[Dab]T[Dab][Dab][Dab][dF]L[Dab][Dab]T; lactam 4-C) as the compound, how does the Kp at 96 h ([1]; treatment failure group, median [IQR]) read?
The Kp at 96 h was 0.088.

And the Kp at 96 h ([1]; treatment success group, median [IQR])?
The Kp at 96 h was 0.17.

And the level at 96 h ([1]; BAL immediately after the seventh dose (day 4), urea dilution method, median and IQR, read-out: ELF concentration)?
The level at 96 h was 900 ng/mL.

What about the level at 96 h ([1]; treatment failure group, median [IQR], read-out: PMB concentration in the ELF) of the same compound?
Its level at 96 h is 980 ng/mL.

What about the level at 96 h ([1]; treatment success group, median [IQR], read-out: PMB concentration in the ELF) of the same compound?
Its level at 96 h is 840 ng/mL.

What about the Cmax ([1]; median and IQR, read-out: plasma Cmax) of the same compound?
The Cmax was 7460 ng/mL.

What about the Cmax ([1]; treatment failure group, median [IQR], read-out: Cmax) of the same compound?
Its Cmax is 11100 ng/mL.

What about the Cmax ([1]; treatment success group, median [IQR], read-out: Cmax) of the same compound?
The Cmax was 5940 ng/mL.

And the V1 ([2]; American acutely ill patients, Gram-negative infection, loading 2.5 to 3 mg/kg, maintenance 2.8 mg/kg/day, one-compartment model, ref Kubin et al., 2018 [46])?
Its V1 is 34.4 L.

What about the V2 ([2]; American acutely ill patients, Gram-negative infection, two-compartment model, ref Miglis et al., 2018 [45]) of the same compound?
The V2 was 78.20 L.

And the CL ([2]; American critically ill patients with Gram-negative infections)?
The CL was “approximately 2.5 L/h”.

What about the V [2, 3] of the same compound?
Its V is 34.3 L.

What about the t1/2 [2, 3] of the same compound?
The t1/2 was 10.1 h.

What about the “AUC in patients with nephrotoxicity” value [2, 4] of the same compound?
The value was 52300 ng·h/mL.

And the “AUC in patients without nephrotoxicity” value [2, 4]?
The value was 45100 ng·h/mL.

What about the “AUCss,0–24h” value ([2]; Brazilian, Australian critically ill patients, 0.45–3.38 mg/kg/day, nonlinear mixed-effects model (PMB1 and PMB2), ref Sandri et al., 2013 [48]) of the same compound?
Its value is 66900 ng·h/mL.

What about the CL [2, 5] of the same compound?
The CL was 0.46 mL/min/kg.

And the “Css,avg” value [2, 5]?
Its value is 2790 ng/mL.

And the V1 [2, 5]?
The V1 was 0.0939 L/kg.

And the V2 [2, 5]?
The V2 was 0.330 L/kg.

What about the “AUCss,0–24h” value ([2]; Chinese MDR Gram-negative infected patients, all, ref Wang et al., 2021 [49]) of the same compound?
The value was 80140 ng·h/mL.

What about the V1 ([2]; Chinese MDR Gram-negative infected patients, 100 to 200 mg/day, one- and two-compartment models, ref Wang et al., 2020 [50]) of the same compound?
The V1 was 6.218 L.

And the “AUCss,0–12 h” value [2, 6]?
The value was 43640 ng·h/mL.

What about the CL [2, 6] of the same compound?
Its CL is 1.786 L/h.

What about the V2 [2, 6] of the same compound?
Its V2 is 11.922 L.

What about the “Css,avg” value ([2]; Chinese MDR Gram-negative infected patients, ref Wang et al., 2021 [49]) of the same compound?
Its value is 3330 ng/mL.

And the “AUCss,0–24h” value [2, 7]?
The value was 67200 ng·h/mL.

What about the “Cmax,ss” value [2, 7] of the same compound?
Its value is 5900 ng/mL.

And the “Cmin,ss” value [2, 7]?
Its value is 1900 ng/mL.

What about the V1 [2, 7] of the same compound?
The V1 was 12.5 ± 5.67 L.

What about the V2 [2, 7] of the same compound?
Its V2 is 29.9 ± 17.3 L.

What about the “AUCss,0–24h” value [2, 8] of the same compound?
Its value is 67200 ng·h/mL.

And the “Cmax,ss” value [2, 8]?
The value was 5900 ng/mL.

And the “Cmin,ss” value [2, 8]?
The value was 1900 ng/mL.

And the V1 [2, 8]?
Its V1 is 12.5 L.

What about the V2 [2, 8] of the same compound?
Its V2 is 29.9 L.

What about the CL [2, 9] of the same compound?
Its CL is 1.67 L/h.

What about the Cmax [2, 9] of the same compound?
Its Cmax is 4590 ng/mL.

What about the V1 [2, 9] of the same compound?
The V1 was 7.857 L.

And the V2 [2, 9]?
The V2 was 12.668 L.

And the t1/2 [2, 9]?
Its t1/2 is 5.29 h.

What about the “AUCss,0–24h” value [2, 10] of the same compound?
The value was 79600 ng·h/mL.

And the CL [2, 10]?
The CL was 1.6 L/h.

And the “Css,avg” value [2, 10]?
Its value is 3350 ng/mL.

What about the V1 [2, 10] of the same compound?
Its V1 is 38.6 L.

What about the V2 [2, 10] of the same compound?
The V2 was 7.13 L.

What about the “AUCss,0–24h” value ([2]; Chinese patients with CRO infections, 1.5–3.0 mg/kg/day, two-compartment model, ref Yang et al., 2022 [55]) of the same compound?
Its value is 58500 ng·h/mL.

What about the C0 h ([2]; Chinese patients with CRO infections, ref Yang et al., 2022 [55]) of the same compound?
The C0 h was 1240 ng/mL.

And the V1 ([2]; Chinese patients with severe CRO infections, loading 1.73, maintain 2.22 mg/kg/day, two-compartment model, ref Luo et al., 2022 [54])?
The V1 was 11.7 L.

What about the “AUCss,0–24h” value ([2]; Chinese patients with severe pneumonia, 50 mg every 12 h (infusion for 1 h), noncompartment model, ref Chen et al., 2021 [58]) of the same compound?
The value was 72700 ng·h/mL.

And the t1/2 ([2]; Chinese patients with severe pneumonia, 50 mg every 12 h, ref Chen et al., 2021 [58])?
The t1/2 was 8.69 h.

And the CL [2, 11]?
Its CL is 1.59 L/h.

And the Vd [2, 11]?
Its Vd is 20.5 L.

And the “AUCss,0–12 h” value ([2]; ECMO, Russian critically ill patients, COVID-19-associated pneumonia, loading 200–300 mg, 2.5–3 mg/kg/day, noncompartmental, ELISA, ref Surovoy et al., 2022 [53])?
Its value is 43380 ng·h/mL.

And the “AUCss,0–24h” value [2, 12]?
The value was 96800 ng·h/mL.

What about the “CSS,avg” value [2, 12] of the same compound?
Its value is 4.03 mg/L.

And the Cmax [2, 12]?
Its Cmax is 5960 ng/mL.

What about the Cmin [2, 12] of the same compound?
The Cmin was 2400 ng/mL.

And the Tmax [2, 12]?
Its Tmax is 5 ± 24 min.

And the Vd [2, 12]?
The Vd was 19.73 L.

What about the Cmin ([2]; Following the loading dose, Chinese patients with CRKP bloodstream infections, loading 2.5 mg/kg, 1.25 mg/kg every 12 h, ref Yu et al., 2022 [56]) of the same compound?
Its Cmin is 1620 ng/mL.

What about the Cmax ([2]; Following the loading dose, Chinese patients with CRKP bloodstream infections, ref Yu et al., 2022 [56]) of the same compound?
Its Cmax is 5530 ng/mL.

And the CL ([2]; Non-CRRT, Chinese patients with severe CRO infections, ref Luo et al., 2022 [54])?
Its CL is 1.5 L/h.

What about the “AUCss,0–12 h” value [2, 13] of the same compound?
The value was 34700 ng·h/mL.

And the CL [2, 13]?
The CL was 1.76 L/h.

What about the “CSS,avg” value [2, 13] of the same compound?
The value was 2.9 mg/L.

What about the Cmax [2, 13] of the same compound?
Its Cmax is 5080 ng/mL.

What about the Cmin [2, 13] of the same compound?
The Cmin was 2150 ng/mL.

And the Vd [2, 13]?
Its Vd is 30.4 L.

What about the “AUCss,0–24h” value ([2]; Normal renal function, Chinese patients, ref Wang et al., 2021 [49]) of the same compound?
Its value is 68630 ng·h/mL.

What about the AUC ([2]; Normal renal function, Thai, American patients, 1.5–2.5 mg/kg/day, ref Thamlikitkul et al., 2016 [52]) of the same compound?
Its AUC is 63500 ng·h/mL.

And the CL ([2]; Normal renal function, Thai, American patients, ref Thamlikitkul et al., 2016 [52])?
Its CL is 2.5 ± 0.4 L/h.

And the “AUCss,0–24h” value ([2]; Renal insufficiency, Chinese patients, ref Wang et al., 2021 [49])?
Its value is 93040 ng·h/mL.

What about the AUC [2, 14] of the same compound?
Its AUC is 56000 ng·h/mL.

And the CL [2, 14]?
The CL was 2.0 L/h.

What about the CL ([2]; human, in vivo) of the same compound?
Its CL is 1.95 L/h.

And the Cmax ([2]; human, in vivo)?
The Cmax was 5500 ng/mL.

And the CL ([2]; in vivo, 0.4 mg/kg/day)?
The CL was 2.5 ± 1.1 L/h.

And the “Css,avg” value ([2]; in vivo)?
The value was 1480 ng/mL.

What about the V2 ([2]; in vivo) of the same compound?
Its V2 is 17.9 L.
